Where “and” joins values, the source holds several entries; their conditions need not be identical. Equal entries are not always repeated. Marks after values point to notes of the source that are not given here. Each block holds one molecule with its values, some of them ahead of it. Ends that are not written are not given here.
T1: MBP-tagged split mFAP fragment m17 (β-strands 1-7 of mFAP2a)
T1 chain: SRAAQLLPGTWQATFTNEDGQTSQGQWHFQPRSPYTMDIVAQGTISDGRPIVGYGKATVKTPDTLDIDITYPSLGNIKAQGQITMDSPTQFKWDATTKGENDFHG

T2: MBP-tagged split mFAP fragment m15 (β-strands 1-5 of mFAP2a)
T2 chain: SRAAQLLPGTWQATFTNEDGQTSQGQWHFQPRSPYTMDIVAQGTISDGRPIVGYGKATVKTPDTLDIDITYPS

T3: MBP-tagged split mFAP fragment m16 (β-strands 1-6 of mFAP2a)
T3 chain: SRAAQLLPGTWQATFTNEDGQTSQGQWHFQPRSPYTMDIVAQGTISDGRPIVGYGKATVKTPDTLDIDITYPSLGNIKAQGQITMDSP

B1: MBP-tagged split mFAP fragment m12 (β-strands 1-2 of mFAP2a) (designed binder, not shown: large carriers)
chain: SRAAQLLPGTWQATFTNEDGQTSQGQWHFQPRSP
modifications: also: MBP-tagged (side and linker not given here)
B2: MBP-tagged split mFAP fragment m13 (β-strands 1-3 of mFAP2a) (designed binder, not shown: large carriers)
chain: SRAAQLLPGTWQATFTNEDGQTSQGQWHFQPRSPYTMDIVAQGTIS
modifications: also: MBP-tagged (side and linker not given here)
B3: MBP-tagged split mFAP fragment m48 (β-strands 4-8 of mFAP2a) (designed binder, not shown: large carriers)
chain: DGRPIVGYGKATVKTPDTLDIDITYPSLGNIKAQGQITMDSPTQFKWDATTKGENDFHGRLTGTLQRQE
B4: MBP-tagged split mFAP fragment m58 (β-strands 5-8 of mFAP2a) (designed binder, not shown: large carriers)
chain: DTLDIDITYPSLGNIKAQGQITMDSPTQFKWDATTKGENDFHGRLTGTLQRQE
modifications: also: MBP-tagged (side and linker not given here)
B5: cp35-34_mFAP2a_12: circularly permuted mFAP, SEQ ID NO: 341; brightest cpmFAP tested (protein)
chain: QEMDIVAQGTISDGRPIVGYGKATVKTPDTLDIDITYPSLGNIKAQGQITMDSPTQFKWDATTKGENDFHGRLTGTLQRTEEAKEATEEARRRGITTQAAQLLPGTWQATFTNEDGQTSQGQWHFQPRDG
B6: MBP-tagged split mFAP fragment m14 (β-strands 1-4 of mFAP2a) (designed binder, not shown: large carriers)
chain: SRAAQLLPGTWQATFTNEDGQTSQGQWHFQPRSPYTMDIVAQGTISDGRPIVGYGKATVKTP
B7: MBP-tagged split mFAP fragment m38 (β-strands 3-8 of mFAP2a) (designed binder, not shown: large carriers)
chain: YTMDIVAQGTISDGRPIVGYGKATVKTPDTLDIDITYPSLGNIKAQGQITMDSPTQFKWDATTKGENDFHGRLTGTLQRQE

Columns and labels:
[1] = cited from earlier work; for Extinction Coefficient / Reported Quantum Yield / λabs, peak absorbance wavelength / λem, peak emission wavelength / λex, peak excitation wavelength: previously reported value
[2] = target: T1, MBP-tagged split mFAP fragment m17 …; assay: fluorescence complementation titration: MBP-tagged m8 titrated into fixed MBP-tagged m17 in 25.0 µM DFHBI-1T; signal did not plateau, Kd is at least the highest titrant concentration
Description: (§1) Split mFAP fragment affinities (FIG. 1d,e,f,g) were estimated by preparing MBP-tagged split mFAP fragments by large-scale protein purification in high salt Tev cleavage buffer⁹, with 25.0 μM DFHBI-1T final concentration at 28.0 μL final volumes per well in flat bottom, black polystyrene, non-binding surface 96-well half-area microplates (Corning 3686). 3.00 μL of either 132 μM m12, 122 μM m14, 101 μM m16, or 84.9 μM m17 in high salt Tev cleavage buffer was mixed with 3.00 μL of 150 μM DFHBI-1T in high salt Tev cleavage buffer. For each split mFAP fragment, 12.0 μL of the complementary split mFAP fragment in high salt Tev cleavage buffer (the titrant) was mixed in from eleven serial dilutions (\sqrt{10} dilution factor) starting from 422 μM m38, 33.0 μM m58, 348 μM m78, or 531 μM m8 stock solutions, respectively, including a twelfth condition without titrant. Fluorescence endpoints were measured on a Synergy Neo2 hybrid multi-mode reader (BioTek) using excitation wavelength λₑₓ=468 nm and emission wavelength λₑₘ=530 nm. For each titration, the fluorescence intensity of the condition without titrant was subtracted from the fluorescence intensities of samples containing titrant, then the background subtracted data was normalized from 0 to 1. […]

[3] = target: B7; assay: split mFAP self-complementation, MBP-tagged fragments mixed equimolar with excess DFHBI-1T, fluorescence endpoint (n=3)
Description: (§2) To measure fluorescence intensities in complementation assays (FIG. 1b), fluorescence was measured on a Synergy Neo2 hybrid multi-mode reader (BioTek) in flat bottom, black polystyrene, non-binding surface 96-well half-area microplates (Corning 3686). Each split mFAP fragment covalently fused to maltose binding protein (MBP) was purified by large-scale protein purification in high salt Tev cleavage buffer⁹. In technical triplicate, 12.0 μL of each MBP-tagged split mFAP fragment was mixed to an equimolar concentration supplemented with 1.00 μL of 1.25 mM DFHBI-1T (Lucerna) at 25.0 μL final volumes per well. Fluorescence endpoints were measured using excitation wavelength λₑₓ=478 nm and emission wavelength λₑₘ=520 nm. In technical triplicate, background fluorescence endpoints of wells with identical chromophore concentrations lacking protein (substituted for equivalent volumes of high salt Tev cleavage buffer) were measured, and the mean fluorescence endpoints were subtracted from the mean fluorescence endpoints of samples containing protein (FIG. 1b).

[4] = target: B3; assay: as above
Description: as §2

[5] = target: B2; assay: β-barrel self-complementation assay (fluorescence of DFHBI-1T)
Description: as §2

[6] = target: B6; assay: fluorescence complementation titration: MBP-tagged m58 titrated into fixed MBP-tagged m14 in 25.0 µM DFHBI-1T; signal did not plateau, Kd is at least the highest titrant concentration
Description: as §1

[7] = cpmFAP fluorescence intensity assay; type: biochemical; details: equimolar concentration, excess DFHBI-1T
Description: To measure the fluorescence intensities of cpmFAPs (FIG. 4b,d), fluorescence endpoints were measured on a Synergy Neo2™ hybrid multi-mode reader (BioTek) in flat bottom, black polystyrene, non-binding surface 96-well microplates (Corning 3650) or half-area microplates (Corning 3686). […]

[8] = target: T2, MBP-tagged split mFAP fragment m15 …; assay: β-barrel self-complementation assay (fluorescence of DFHBI-1T)
Description: as §2

[9] = target: B4; assay: split mFAP self-complementation, MBP-tagged fragments mixed equimolar with excess DFHBI-1T, fluorescence endpoint (n=3)
Description: as §2

[10] = target: B1; assay: fluorescence complementation titration: MBP-tagged m38 titrated into fixed MBP-tagged m12 in 25.0 µM DFHBI-1T; signal did not plateau, Kd is at least the highest titrant concentration
Description: as §1

[11] = target: B1; assay: β-barrel self-complementation assay, equimolar MBP-tagged fragments in excess DFHBI-1T; reference is m1 with m28
Description: as §2

[12] = target: B1; assay: β-barrel self-complementation assay, equimolar MBP-tagged fragments in excess DFHBI-1T
Description: as §2

[13] = target: T3, MBP-tagged split mFAP fragment m16 …; assay: fluorescence complementation titration: MBP-tagged m78 titrated into fixed MBP-tagged m16 in 25.0 µM DFHBI-1T; signal did not plateau, Kd is at least the highest titrant concentration
Description: as §1

Molecule: Cc1cc2cc3cc(C)c(N)cc3nc2cc1N.Cl [Acridine Yellow G]
- quantum yield value of reference dye ([1]; in methanol): 0.57

Molecule: CC1=NC(=Cc2cc(F)c(O)c(F)c2)C(=O)N1C [DFHBI, 3,5-difluoro-4-hydroxybenzylidene imidazolinone]
- Absolute Quantum Yield ([1]; marked previously reported value): 0.001^#
- Extinction Coefficient [1]: 30,100^¶ M^−1, cm^−1 and 31,935^# M^−1, cm^−1
- Reported Quantum Yield [1]: 0.0007^¶
- λabs, peak absorbance wavelength [1]: 418^¶ nm
- λem, peak emission wavelength [1]: 489^¶ nm
- λex, peak excitation wavelength [1]: 423^¶ nm

Molecule: CC1=N/C(=C\c2cc(F)c(O)c(F)c2)C(=O)N1CC(F)(F)F [DFHBI-1T, (Z)-4-(3,5-difluoro-4-hydroxybenzylidene)-2-methyl-1-(2,2,2-trifluoroethyl)-1H-imidazol-5(4H)-one]
- Extinction Coefficient [1]: 35,400^¶ M^−1, cm^−1
- Reported Quantum Yield [1]: 0.00098^¶
- λabs, peak absorbance wavelength [1]: 422^¶ nm
- λem, peak emission wavelength [1]: 495^¶ nm
- λex, peak excitation wavelength [1]: 426^¶ nm

- Kd [2]: ≥ 354 µM
Molecule: RLTGTLQRQE (designed binder, not shown: large carriers, also: MBP tag fused, side and linker not given here) [MBP-tagged split mFAP fragment m8 (β-strand 8 of mFAP2a)]

Molecule: B1
- binding result [3]: binds

Molecule: B2
- binding result [4]: binds

Molecule: B3
- binding result [5]: binds

Molecule: B4
- Kd [6]: ≥ 22 µM

Molecule: B5
- fluorescence intensity relative to mFAP2a [7]: ~93%

- binding result [8]: binds
Molecule: LGNIKAQGQITMDSPTQFKWDATTKGENDFHGRLTGTLQRQE (designed binder, not shown: large carriers, also: MBP tag fused, side and linker not given here) [MBP-tagged split mFAP fragment m68 (β-strands 6-8 of mFAP2a)]

Molecule: B6
- binding result [9]: binds

Molecule: B7
- Kd [10]: ≥ 281 µM
- background-subtracted mean fluorescence intensity relative to the m1 and m28 combination (fold) [11]: 184 fold
- mean fluorescence intensity over mean background fluorescence intensity (fold) [12]: 7.34 fold

- Kd [13]: ≥ 232 µM
Molecule: TQFKWDATTKGENDFHGRLTGTLQRQE (designed binder, not shown: large carriers, also: MBP tag fused, side and linker not given here) [MBP-tagged split mFAP fragment m78 (β-strands 7-8 of mFAP2a)]
